Laboratory results: PubChem BioAssay (NCI)
Several values for one entry are separate records, joined by “and”; a condition that tells them apart may be missing. Identical values can stand only once.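 Each compound was tested at five concentrations against cells in 96-well plates for 48 hours. At the GI50, growth is halved. TGI is the concentration that stops growth completely.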

Tests used:
Assay in all cases: NCI-60 cell line screen, 48 h
786-0 renal = tested on: 786-0 renal
A498 renal = tested on: A498 renal
A549 NSCLC = tested on: A549 NSCLC
ACHN renal = tested on: ACHN renal
BT-549 breast = tested on: BT-549 breast
CAKI-1 renal = tested on: CAKI-1 renal
CCRF-CEM leukemia = tested on: CCRF-CEM leukemia
COLO 205 colon = tested on: COLO 205 colon
DU-145 prostate = tested on: DU-145 prostate
EKVX NSCLC = tested on: EKVX NSCLC
HCC-2998 colon = tested on: HCC-2998 colon
HCT-116 colon = tested on: HCT-116 colon
HCT-15 colon = tested on: HCT-15 colon
HL-60(TB) leukemia = tested on: HL-60(TB) leukemia
HOP-62 NSCLC = tested on: HOP-62 NSCLC
HOP-92 NSCLC = tested on: HOP-92 NSCLC
HS 578T breast = tested on: HS 578T breast
HT29 colon = tested on: HT29 colon
IGROV1 ovarian = tested on: IGROV1 ovarian
K-562 leukemia = tested on: K-562 leukemia
KM12 colon = tested on: KM12 colon
LOX IMVI melanoma = tested on: LOX IMVI melanoma
M14 melanoma = tested on: M14 melanoma
MALME-3M melanoma = tested on: MALME-3M melanoma
MCF7 breast = tested on: MCF7 breast
MDA-MB-231 breast = tested on: MDA-MB-231 breast
MDA-MB-435 = tested on: MDA-MB-435
MOLT-4 leukemia = tested on: MOLT-4 leukemia
NCI-H226 lung = tested on: NCI-H226 lung
NCI-H23 lung = tested on: NCI-H23 lung
NCI-H460 lung = tested on: NCI-H460 lung
NCI-H522 lung = tested on: NCI-H522 lung
NCI/ADR-RES ovarian = tested on: NCI/ADR-RES ovarian
OVCAR-3 ovarian = tested on: OVCAR-3 ovarian
OVCAR-4 ovarian = tested on: OVCAR-4 ovarian
OVCAR-5 ovarian = tested on: OVCAR-5 ovarian
OVCAR-8 ovarian = tested on: OVCAR-8 ovarian
PC-3 prostate = tested on: PC-3 prostate
RPMI-8226 leukemia = tested on: RPMI-8226 leukemia
RXF 393 renal = tested on: RXF 393 renal
SF-268 CNS = tested on: SF-268 CNS
SF-295 CNS = tested on: SF-295 CNS
SF-539 CNS = tested on: SF-539 CNS
SK-MEL-2 melanoma = tested on: SK-MEL-2 melanoma
SK-MEL-28 melanoma = tested on: SK-MEL-28 melanoma
SK-MEL-5 melanoma = tested on: SK-MEL-5 melanoma
SK-OV-3 ovarian = tested on: SK-OV-3 ovarian
SN12C renal = tested on: SN12C renal
SNB-19 CNS = tested on: SNB-19 CNS
SNB-75 CNS = tested on: SNB-75 CNS
SR leukemia = tested on: SR leukemia
SW-620 colon = tested on: SW-620 colon
T-47D breast = tested on: T-47D breast
TK-10 renal = tested on: TK-10 renal
U251 CNS = tested on: U251 CNS
UACC-257 melanoma = tested on: UACC-257 melanoma
UACC-62 melanoma = tested on: UACC-62 melanoma
UO-31 renal = tested on: UO-31 renal

CC(C)[C@](O)(c1ccc2cc(OC(F)F)c(OC(F)F)cc2c1)c1cn[nH]n1
GI50 (786-0 renal): 17.8 µM and 16.9 µM
TGI (786-0 renal): 39.4 µM and 39.9 µM
GI50 (A498 renal): 14.4 µM and 15.4 µM
TGI (A498 renal): 28.2 µM and 29.2 µM
GI50 (A549 NSCLC): 23.5 µM and 19.5 µM
TGI (A549 NSCLC): 59.7 µM and 47.6 µM
GI50 (ACHN renal): 25.7 µM and 19.3 µM
TGI (ACHN renal): 93.3 µM and 54 µM
GI50 (BT-549 breast): 15.6 µM and 13.3 µM
TGI (BT-549 breast): 31.1 µM and 28.5 µM
GI50 (CAKI-1 renal): 13 µM and 10.2 µM
TGI (CAKI-1 renal): 37 µM and 34.5 µM
GI50 (CCRF-CEM leukemia): 23.8 µM and 24.2 µM
TGI (CCRF-CEM leukemia): 59 µM and 85.1 µM
GI50 (COLO 205 colon): 17 µM and 21.5 µM
TGI (COLO 205 colon): 33.9 µM and 43.2 µM
GI50 (DU-145 prostate): 19.1 µM and 16.4 µM
TGI (DU-145 prostate): 45.6 µM and 32 µM
GI50 (EKVX NSCLC): 14 µM and 13.6 µM
TGI (EKVX NSCLC): 44.8 µM and 39.9 µM
GI50 (HCC-2998 colon): 18.2 µM and 18.4 µM
TGI (HCC-2998 colon): 36.3 µM and 34.5 µM
GI50 (HCT-116 colon): 15.2 µM and 15 µM
TGI (HCT-116 colon): 31.3 µM and 30.2 µM
GI50 (HCT-15 colon): 13.9 µM and 14.4 µM
TGI (HCT-15 colon): 31.5 µM and 31.8 µM
GI50 (HL-60(TB) leukemia): 26.8 µM and 25 µM
TGI (HL-60(TB) leukemia): 68.5 µM and 75.7 µM
GI50 (HOP-62 NSCLC): 17.2 µM and 15.6 µM
TGI (HOP-62 NSCLC): 36.9 µM and 31.5 µM
GI50 (HOP-92 NSCLC): 13.6 µM and 13.5 µM
TGI (HOP-92 NSCLC): 32.2 µM and 29.3 µM
GI50 (HS 578T breast): 22.1 µM and 15.4 µM
TGI (HS 578T breast): 82.4 µM and 51.2 µM
GI50 (HT29 colon): 16 µM and 20.8 µM
TGI (HT29 colon): 36.3 µM and 46.6 µM
GI50 (IGROV1 ovarian): 24.6 µM and 17.8 µM
TGI (IGROV1 ovarian): 70.7 µM and 44.5 µM
GI50 (K-562 leukemia): 20.1 µM and 24.8 µM
TGI (K-562 leukemia): 66.3 µM and 80.7 µM
GI50 (KM12 colon): 20.3 µM and 15.2 µM
TGI (KM12 colon): 41.7 µM and 31.2 µM
GI50 (LOX IMVI melanoma): 15.7 µM and 14.8 µM
TGI (LOX IMVI melanoma): 29.1 µM and 28.9 µM
GI50 (M14 melanoma): 18.5 µM and 15.4 µM
TGI (M14 melanoma): 42.2 µM and 32.6 µM
GI50 (MALME-3M melanoma): 18.4 µM and 21 µM
TGI (MALME-3M melanoma): 42.6 µM and 44.7 µM
TGI (MCF7 breast): 22.4 µM and 35.9 µM
GI50 (MDA-MB-231 breast): 20.5 µM and 12.3 µM
TGI (MDA-MB-231 breast): 38.9 µM and 28.6 µM
GI50 (MDA-MB-435): 16 µM and 15.4 µM
TGI (MDA-MB-435): 32.6 µM and 33 µM
GI50 (MOLT-4 leukemia): 30.1 µM and 17.1 µM
TGI (MOLT-4 leukemia): 82.7 µM and 62 µM
GI50 (NCI-H226 lung): 23.1 µM and 18.9 µM
TGI (NCI-H226 lung): 55.4 µM and 46.1 µM
GI50 (NCI-H23 lung): 16.8 µM and 15.8 µM
TGI (NCI-H23 lung): 40.1 µM and 35.2 µM
GI50 (NCI-H460 lung): 18.9 µM and 17.7 µM
TGI (NCI-H460 lung): 34.9 µM and 34.3 µM
GI50 (NCI-H522 lung): 16.4 µM and 14.8 µM
TGI (NCI-H522 lung): 36.5 µM and 35.4 µM
GI50 (NCI/ADR-RES ovarian): 20.1 µM and 21.5 µM
TGI (NCI/ADR-RES ovarian): 52.8 µM and 53.5 µM
GI50 (OVCAR-3 ovarian): 18.7 µM and 14 µM
TGI (OVCAR-3 ovarian): 36.6 µM and 29.1 µM
GI50 (OVCAR-4 ovarian): 21.9 µM and 15 µM
TGI (OVCAR-4 ovarian): > 100 µM and 54.4 µM
GI50 (OVCAR-5 ovarian): 21.7 µM and 22.9 µM
TGI (OVCAR-5 ovarian): 65.1 µM and 64.9 µM
GI50 (OVCAR-8 ovarian): 29.6 µM and 26.4 µM
TGI (OVCAR-8 ovarian): 81.1 µM and 62.5 µM
GI50 (PC-3 prostate): 17.5 µM and 14.2 µM
TGI (PC-3 prostate): 35.4 µM and 33.4 µM
GI50 (RPMI-8226 leukemia): 24.9 µM and 18.2 µM
TGI (RPMI-8226 leukemia): 68.4 µM and 53 µM
GI50 (RXF 393 renal): 15 µM and 14.4 µM
TGI (RXF 393 renal): 29.1 µM and 28.3 µM
GI50 (SF-268 CNS): 18.7 µM and 14.4 µM
TGI (SF-268 CNS): 50.3 µM and 34.6 µM
GI50 (SF-295 CNS): 15.8 µM and 14 µM
TGI (SF-295 CNS): 33.4 µM and 29 µM
GI50 (SF-539 CNS): 16.5 µM and 16.2 µM
TGI (SF-539 CNS): 32.4 µM and 32.3 µM
GI50 (SK-MEL-2 melanoma): 18.7 µM and 17.1 µM
TGI (SK-MEL-2 melanoma): 36.6 µM and 35 µM
GI50 (SK-MEL-28 melanoma): 18.5 µM and 19.6 µM
TGI (SK-MEL-28 melanoma): 36.9 µM and 40.8 µM
GI50 (SK-MEL-5 melanoma): 17.1 µM and 16.9 µM
TGI (SK-MEL-5 melanoma): 30.9 µM and 30.7 µM
GI50 (SK-OV-3 ovarian): 14.6 µM and 17.7 µM
TGI (SK-OV-3 ovarian): 38.6 µM and 45.5 µM
GI50 (SN12C renal): 19.2 µM and 15.6 µM
TGI (SN12C renal): 36.8 µM and 32.2 µM
GI50 (SNB-19 CNS): 22 µM and 15.7 µM
TGI (SNB-19 CNS): 51 µM and 41.8 µM
GI50 (SNB-75 CNS): 11.8 µM and 9.7 µM
TGI (SNB-75 CNS): 36.1 µM and 27.1 µM
GI50 (SR leukemia): 24.7 µM and 12.1 µM
TGI (SR leukemia): 56.7 µM and 44.9 µM
GI50 (SW-620 colon): 21 µM and 18.5 µM
TGI (SW-620 colon): 44.9 µM and 38.5 µM
GI50 (T-47D breast): 3.73 µM and 15.5 µM
TGI (T-47D breast): 53.4 µM and 71.1 µM
GI50 (TK-10 renal): 17 µM and 12.6 µM
TGI (TK-10 renal): 38.4 µM and 35.7 µM
GI50 (U251 CNS): 16.5 µM and 16.1 µM
TGI (U251 CNS): 33.5 µM and 32 µM
GI50 (UACC-257 melanoma): 21.5 µM and 21.8 µM
TGI (UACC-257 melanoma): 47.7 µM and 46.1 µM
GI50 (UACC-62 melanoma): 20.1 µM and 13 µM
TGI (UACC-62 melanoma): 39.6 µM and 29.8 µM
GI50 (UO-31 renal): 12.8 µM and 12.1 µM
TGI (UO-31 renal): 29.1 µM and 30.1 µM
